pIC50: −log10 of the molar value. Activity calls are given as the source filed them. The rule behind the calls is not given here.
Legend:
[1] = target: Receptor-type tyrosine-protein kinase FLT3 (Homo sapiens, UniProt P36888, D835Y)
[2] = target: Receptor-type tyrosine-protein kinase FLT3 (Homo sapiens, UniProt P36888, ITD)
Serum = assay: Protein binding in 10% human serum at 100 uM after 3 days; format: ADME; settings: 72 h
MOLM-13 = assay: Antiproliferative activity against pMMP-LucNeo fused human MOLM13 cells assessed as cell viability after 3 days by cell titer glo assay; format: functional, cell-based
MOLM-14 = assay: Antiproliferative activity against human MOLM14 cells assessed as cell viability after 3 days by cell titer glo assay; format: functional, cell-based
HEL = assay: Antiproliferative activity against human HEL cells assessed as cell viability by cell titer glo assay; format: functional, cell-based
NOMO-1 = assay: Antiproliferative activity against human NOMO1 cells assessed as cell viability by cell titer glo assay; format: functional, cell-based
Homo sapiens = organism: Homo sapiens; assay: Antiproliferative activity against human P31 cells assessed as cell viability by cell titer glo assay; format: functional, cell-based
K562 = assay: Antiproliferative activity against human K562 cells assessed as cell viability by cell titer glo assay; format: functional, cell-based
PF-382 = assay: Antiproliferative activity against human PF382 cells assessed as cell viability by cell titer glo assay; format: functional, cell-based
U-937 = assay: Antiproliferative activity against human U937 cells assessed as cell viability by cell titer glo assay; format: functional, cell-based
K052 = assay: Antiproliferative activity against human K052 cells assessed as cell viability by cell titer glo assay; format: functional, cell-based
NALM-6 = assay: Antiproliferative activity against human NALM6 cells assessed as cell viability by cell titer glo assay; format: functional, cell-based
NB-4 = assay: Antiproliferative activity against pMMP-LucNeo fused human NB4 cells assessed as cell viability by cell titer glo assay; format: functional, cell-based
THP-1 = assay: Antiproliferative activity against human THP1 cells assessed as cell viability by cell titer glo assay; format: functional, cell-based
[3] = Cell cycle arrest in […]-ITD mutant expressing mouse BA/F3 cells assessed accumulation at G1 phase up to 100 nM after 48 hrs by propidium iodide staining based FACS analysis; format: functional; settings: BaF3
BaF3 [4] = assay: Induction of apoptosis in […]-ITD mutant expressing mouse BA/F3 cells up to 1000 nM after 48 hrs by Annexin V-fluos assay; format: functional, cell-based
[5] = Cell cycle arrest in […]-D835Y mutant expressing mouse BA/F3 cells assessed accumulation at G1 phase up to 100 nM after 48 hrs by propidium iodide staining based FACS analysis; format: functional; settings: BaF3
BaF3 [6] = assay: Induction of apoptosis in […]-D835Y mutant expressing mouse BA/F3 cells up to 1000 nM after 48 hrs by Annexin V-fluos assay; format: functional, cell-based
[7] = Antiproliferative activity against human patient-derived FLT3 D835Y mutant expressing AML cells primagrafted in mouse spleen after 3 days; format: functional, cell-based; settings: 72 h
[8] = Antiproliferative activity against human patient-derived FLT3 ITD mutant expressing AML cells primagrafted in mouse spleen after 3 days; format: functional, cell-based; settings: 72 h
[9] = target: Phosphorylase b kinase gamma catalytic chain, skeletal muscle/heart isoform (Homo sapiens, UniProt Q16816); assay: Inhibition of PHKGI (unknown origin) by kinomescan analysis
Sequence of Phosphorylase b kinase gamma catalytic chain, skeletal muscle/heart isoform (Q16816 whole entry, canonical isoform): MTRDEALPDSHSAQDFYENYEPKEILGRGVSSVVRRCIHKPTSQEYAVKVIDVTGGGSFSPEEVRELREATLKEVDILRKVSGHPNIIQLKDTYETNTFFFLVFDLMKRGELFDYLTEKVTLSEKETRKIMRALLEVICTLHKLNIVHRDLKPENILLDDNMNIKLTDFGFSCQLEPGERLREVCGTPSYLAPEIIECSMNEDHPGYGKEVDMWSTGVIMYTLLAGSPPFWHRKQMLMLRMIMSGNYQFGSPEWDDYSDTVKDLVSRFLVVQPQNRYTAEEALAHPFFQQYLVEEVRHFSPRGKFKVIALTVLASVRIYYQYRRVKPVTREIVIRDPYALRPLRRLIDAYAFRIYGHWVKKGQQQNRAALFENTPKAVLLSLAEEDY

[10] = target: Dual specificity protein kinase CLK4 (Homo sapiens, UniProt Q9HAZ1); assay: Inhibition of CLK4 (unknown origin) by kinomescan analysis
Sequence of Dual specificity protein kinase CLK4 (Q9HAZ1 whole entry): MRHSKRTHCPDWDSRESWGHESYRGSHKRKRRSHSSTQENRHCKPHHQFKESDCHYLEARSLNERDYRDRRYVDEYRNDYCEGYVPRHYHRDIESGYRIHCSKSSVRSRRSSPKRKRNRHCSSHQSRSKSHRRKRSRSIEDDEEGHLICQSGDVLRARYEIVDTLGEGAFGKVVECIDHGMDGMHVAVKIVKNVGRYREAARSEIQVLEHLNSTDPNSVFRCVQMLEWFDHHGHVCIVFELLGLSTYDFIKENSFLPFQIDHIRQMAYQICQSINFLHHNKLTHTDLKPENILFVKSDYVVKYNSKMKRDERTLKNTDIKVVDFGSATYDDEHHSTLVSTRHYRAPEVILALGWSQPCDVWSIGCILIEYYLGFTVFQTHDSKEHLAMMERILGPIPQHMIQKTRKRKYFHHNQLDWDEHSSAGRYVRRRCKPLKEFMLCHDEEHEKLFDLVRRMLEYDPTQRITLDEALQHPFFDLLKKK

[11] = target: Rho-associated protein kinase 2 (Homo sapiens, UniProt O75116); assay: Inhibition of ROCK2 (unknown origin) by kinomescan analysis
Sequence of Rho-associated protein kinase 2 (O75116 whole entry): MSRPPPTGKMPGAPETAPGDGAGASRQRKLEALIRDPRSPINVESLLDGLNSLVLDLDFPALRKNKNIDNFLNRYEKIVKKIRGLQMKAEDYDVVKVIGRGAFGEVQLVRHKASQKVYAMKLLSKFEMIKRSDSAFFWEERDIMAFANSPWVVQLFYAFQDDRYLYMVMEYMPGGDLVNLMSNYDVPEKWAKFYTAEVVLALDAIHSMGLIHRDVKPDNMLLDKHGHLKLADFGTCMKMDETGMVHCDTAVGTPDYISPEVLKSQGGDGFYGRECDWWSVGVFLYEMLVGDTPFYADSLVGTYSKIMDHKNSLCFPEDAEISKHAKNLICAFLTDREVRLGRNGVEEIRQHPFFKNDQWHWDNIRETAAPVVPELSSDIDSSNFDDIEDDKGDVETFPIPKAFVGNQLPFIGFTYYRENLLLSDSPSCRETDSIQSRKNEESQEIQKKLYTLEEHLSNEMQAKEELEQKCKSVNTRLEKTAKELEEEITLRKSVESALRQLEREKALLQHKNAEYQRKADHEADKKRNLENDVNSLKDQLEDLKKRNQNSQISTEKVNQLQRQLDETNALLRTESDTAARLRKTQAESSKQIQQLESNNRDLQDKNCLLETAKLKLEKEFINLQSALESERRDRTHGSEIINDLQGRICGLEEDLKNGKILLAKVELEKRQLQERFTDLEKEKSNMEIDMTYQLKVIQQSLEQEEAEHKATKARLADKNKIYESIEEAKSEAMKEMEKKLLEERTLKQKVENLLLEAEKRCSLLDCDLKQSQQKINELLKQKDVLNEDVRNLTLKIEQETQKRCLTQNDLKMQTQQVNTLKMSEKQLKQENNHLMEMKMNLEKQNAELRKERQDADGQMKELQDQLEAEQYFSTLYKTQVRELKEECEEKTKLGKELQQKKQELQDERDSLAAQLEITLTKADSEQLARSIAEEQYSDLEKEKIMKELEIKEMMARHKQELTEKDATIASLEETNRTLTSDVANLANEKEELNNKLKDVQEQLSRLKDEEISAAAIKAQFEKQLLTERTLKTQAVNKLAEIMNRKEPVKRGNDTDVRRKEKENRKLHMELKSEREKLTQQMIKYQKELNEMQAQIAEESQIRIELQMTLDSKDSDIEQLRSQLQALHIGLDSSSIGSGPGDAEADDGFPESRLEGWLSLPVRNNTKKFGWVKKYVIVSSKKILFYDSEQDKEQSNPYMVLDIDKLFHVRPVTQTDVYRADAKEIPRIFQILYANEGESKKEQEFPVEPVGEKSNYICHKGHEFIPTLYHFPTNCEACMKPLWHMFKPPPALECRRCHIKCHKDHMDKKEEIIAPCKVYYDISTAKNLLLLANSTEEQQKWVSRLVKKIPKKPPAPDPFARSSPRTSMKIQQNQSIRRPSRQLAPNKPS

[12] = target: Dual specificity protein kinase CLK1 (Homo sapiens) (UniProt P49759); assay: Inhibition of CLK1 (unknown origin) at 1 uM by kinomescan analysis
Sequence of Dual specificity protein kinase CLK1 (Homo sapiens) (P49759 whole entry, looked up): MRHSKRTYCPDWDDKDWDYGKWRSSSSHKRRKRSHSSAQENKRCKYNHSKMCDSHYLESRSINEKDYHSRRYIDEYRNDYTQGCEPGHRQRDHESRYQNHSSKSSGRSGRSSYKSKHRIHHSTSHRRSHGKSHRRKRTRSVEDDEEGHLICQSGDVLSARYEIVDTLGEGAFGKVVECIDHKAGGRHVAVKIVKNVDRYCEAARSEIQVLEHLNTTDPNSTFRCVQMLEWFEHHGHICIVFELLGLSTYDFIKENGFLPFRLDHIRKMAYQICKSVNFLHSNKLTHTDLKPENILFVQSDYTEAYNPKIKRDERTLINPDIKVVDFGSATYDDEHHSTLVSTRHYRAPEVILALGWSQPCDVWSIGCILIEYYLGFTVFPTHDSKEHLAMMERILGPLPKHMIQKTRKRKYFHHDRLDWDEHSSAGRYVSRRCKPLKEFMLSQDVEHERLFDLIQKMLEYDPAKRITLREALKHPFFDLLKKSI

[13] = Half life in mouse microsomes; format: ADME, Microsome
Plasma = assay: Stability in mouse plasma after 6 hrs; format: ADME, cell-free
[14] = target: Receptor-type tyrosine-protein kinase FLT3 (Homo sapiens) (UniProt P36888); settings: 1 uM
Description: Inhibition of wild type FLT3 (unknown origin) at 1 uM by kinomescan analysis

[15] = test system: Receptor-type tyrosine-protein kinase FLT3 (Homo sapiens), P36888 [UNDEFINED MUTATION]; settings: 1 uM
[16] = test system: Receptor-type tyrosine-protein kinase FLT3 (Homo sapiens), P36888 [N841I]; settings: 1 uM
Description: Inhibition of FLT3 N841I mutant (unknown origin) at 1 uM by kinomescan analysis

[17] = test system: Receptor-type tyrosine-protein kinase FLT3 (Homo sapiens), P36888 [D835V]; settings: 1 uM
Description: Inhibition of FLT3 D835V mutant (unknown origin) at 1 uM by kinomescan analysis

[18] = test system: Receptor-type tyrosine-protein kinase FLT3 (Homo sapiens), P36888 [UNDEFINED MUTATION]; settings: 1 uM; remark: listed apart in the source
[19] = test system: Receptor-type tyrosine-protein kinase FLT3 (Homo sapiens), P36888 [UNDEFINED MUTATION]; settings: 1 uM; remark: listed apart in the source
[20] = test system: Receptor-type tyrosine-protein kinase FLT3 (Homo sapiens), P36888 [R834Q]; settings: 1 uM
Description: Inhibition of FLT3 R834Q double mutant (unknown origin) at 1 uM by kinomescan analysis

CN(C)CCCn1cc(-c2ccc3c(c2)-c2[nH]c4cc(-c5cn[nH]c5)ccc4c2C3=O)cn1
pIC50 [1]: 8.40
pIC50 [2]: 8.00
PB (Serum): Active
Activity (MOLM-13): Active
Activity (MOLM-14): Active
Activity (HEL): inactive
Activity (NOMO-1): inactive
Activity (Homo sapiens): inactive
Activity (K562): inactive
Activity (PF-382): inactive
Activity (U-937): inactive
Activity (K052): inactive
Activity (NALM-6): inactive
Activity (NB-4): inactive
Activity (THP-1): inactive
Activity [3]: Active
Activity (BaF3 [4]): Active
Activity [5]: inactive
Activity (BaF3 [6]): Active
pIC50 [7]: 7.15
pIC50 [8]: 7.15
pIC50 [9]: 7.11
pIC50 [10]: 6.85
pIC50 [11]: 6.03
inhibition [12]: Active
half-life [13]: 15 min
Stability (Plasma): Stable
inhibition [14]: > 95%
inhibition [15]: > 95%
inhibition [16]: > 95%
inhibition [17]: > 95%
inhibition [18]: > 95%
inhibition [19]: > 95%
inhibition [20]: > 95%
